Several values for one entry are separate records, joined by “and”; a condition that tells them apart may be missing. Equal values may be shown once. Read-outs that look alike come from different tables or passages of the source.
Assays:
[1] = target: T1, asialoglycoprotein receptor (Mus musculus, UniProt P24721+P34927); assay: Screening of ligand (2): kint and koff without labeling the ligand (Example 18); assay type: cell-based; settings: for kint: 37°C for 10 minutes, 125I-ASOR read-out
T1 construct: Mouse primary cultured hepatocytes, which were cultured for overnight on the 12 well plate, isolated by collagenase perfusion; endogenous in cells; host or cells: mouse (C57BL/6) primary hepatocytes cultured overnight on 12-well plates
T1 sequence (P34927 1-284): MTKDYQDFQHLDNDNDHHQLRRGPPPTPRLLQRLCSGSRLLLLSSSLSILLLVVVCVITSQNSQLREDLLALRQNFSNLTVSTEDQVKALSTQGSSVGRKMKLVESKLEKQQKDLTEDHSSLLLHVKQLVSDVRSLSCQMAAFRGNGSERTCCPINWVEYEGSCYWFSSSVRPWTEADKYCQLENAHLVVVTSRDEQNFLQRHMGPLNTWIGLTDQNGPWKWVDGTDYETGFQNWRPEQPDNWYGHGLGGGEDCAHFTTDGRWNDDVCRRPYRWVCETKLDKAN
T1 sequence (P24721 1-301): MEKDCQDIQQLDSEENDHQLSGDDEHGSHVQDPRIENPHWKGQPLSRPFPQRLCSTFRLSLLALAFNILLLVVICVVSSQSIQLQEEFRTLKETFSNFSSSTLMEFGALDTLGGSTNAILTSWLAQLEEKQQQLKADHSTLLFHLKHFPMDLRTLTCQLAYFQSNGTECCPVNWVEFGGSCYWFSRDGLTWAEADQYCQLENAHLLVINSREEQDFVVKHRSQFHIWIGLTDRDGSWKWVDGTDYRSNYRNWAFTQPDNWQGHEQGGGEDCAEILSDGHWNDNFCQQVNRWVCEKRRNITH
Description: A method for screening ligand having high ability to avoid the internalization without radio labeling each ligand to obtain kint and koff and to calculate simply the ability to avoid the internalization (= kint / koff) was performed as follows. […] Concretely, mouse primary cultured hepatocytes, which were isolated by the method of Berry et al. collagenase perfusion method shown in example and cultured overnight on 12 well plate, was washed twice with D-MEM (pH 7.4) (each 2 ml) containing D-PBS, 0.1% BSA and 20 mM Hepes. The same D-MEM medium (1 ml) was added thereto and preincubated at 37°C for 60 minutes. Cooled D-PBS (pH 5.0) containing 10 mM EDTA was added to the cells, allowed to stand under ice cooling for 4 minutes and washed twice with cooled D-PBS (2 ml). Using the thus prepared plate, experiments for calculating kint and koff were performed. […] Separately, the system without addition of the ligand was incubated for 0 minute and for 10 minutes at 37°C. After the necessary time has passed, immediately the plate was placed on the ice bath, added the cooled D-PBS (pH 5.0) containing 10 mM EDTA, allowed to stand under ice cooling for 4 minutes, and washed 4 times with cooled D-PBS (1 ml). D-MEM solution (0.4 ml) of 0.6 nM ^125I-ASOR was added to the cells in each well on the ice bath, and allowed to stand at 4°C for 60 minutes. […] Amount of receptor remained on the surface (ligand bound or free) other than the integration by endocytosis was calculated by measuring the cell lysis with ã-counter (mean of 3 repeats). The obtained amount of ratio activity was all divided by the concentration of the added solution (cpm/μl) to convert the distribution volume (μl/well). […] Separately, with regard to the system without ligand, only the said D-MEM medium is added 0.4 ml and incubated. […] The cell lytic solution was measured using γ-counter to calculate amount of the dissociated cold ligand once bound with the receptor. The amount of obtained radio activity is all divided by the concentration of the added solution (cpm/μl) and converted to the distribution volume (μl/well). With regards to the ligand non-added system and the ligand added system, the binding rate for 15 minutes is calculated by subtracting the distribution volume in the incubation for 5 minutes from the distribution volume in the incubation for 20 minutes. The binding rate without addition of the ligand is set as 100 and the binding rate of each ligand is converted into the percentage to the control (% of control).

[2] = target: T1, asialoglycoprotein receptor; assay: Screening of ligand (1): bound 125I-ASOR after incubation of hepatocytes with unlabeled ligand (Example 17); assay type: cell-based; settings: bound counts of 125I-ASOR after 10 minutes at 37°C with ligand at 100 - 2000 times of Kd; mean of 3
Description: A method for screening ligand having high ability to avoid the internalization without radio labeling each ligand and without calculation of kint and koff, was performed as follows.
Concretely, mouse primary cultured hepatocytes, which were isolated by a method of Berry et al. collagenase perfusion method shown in example and cultured overnight on 12 well plate, was washed twice with D-MEM (pH 7.4) (each 2 ml) containing D-PBS, 0.1% BSA and 20 mM Hepes. The same D-MEM medium (1 ml) was added thereto and preincubated at 37°C for 60 minutes. Cooled D-PBS (pH 5.0) containing 10 mM EDTA was added to the cells, allowed to stand under ice cooling for 4 minutes and washed twice with cooled D-PBS (2 ml). […] After 10 minutes, the plate was placed on the ice bath, added the cooled D-PBS (pH 5.0) containing 10 mM EDTA, allowed to stand under ice cooling for 4 minutes, and washed 4 times with cooled D-PBS (1 ml). D-MEM solution (0.4 ml) of 0.6 nM ^125I-ASOR was added to the cells in each well on the ice bath, and allowed to stand at 4°C for 60 minutes. On the ice bath, they were washed 4 times with cooled D-PBS (1 ml), allowed to stand at -80°C for more than 30 minutes, added 0.1 N sodium hydroxide (0.5 ml), and incubated at 37°C formore than 1 hour. Amount of receptor remained on the surface (ligand bound or free) other than the internalization by endocytosis was calculated by measuring the cell lysis with ã-counter (mean of 3 repeats).

[3] = target: T1, asialoglycoprotein receptor; assay: Binding inhibition experiment 2 of 125I-ASOR on mouse primary cultured hepatocytes (Example 9); settings: read-out: Ki value, 0.6 nM 125I-ASOR, 4°C for 60 minutes
Description: In the binding inhibition experiment according to the method of Biessen, et al. performed in example 8, a concentration of added ^125I-ASOR was 22 nM. Kd value of ASOR is approximately several nM and the concentration of added ASOR is higher that the actual Kd value, consequently, in the experiment in example 8, the binding inhibition by each ligand is difficult to generate and the Kd value is estimated too high. In order to evaluate newly synthesized ligand[(Gal)3(6) and (Gal)2(9)], calculation of more exact Ki value is necessary.
Mouse primary cultured hepatocytes, which were cultured for overnight on the 12 well plate, isolated by collagenase perfusion described in examples of Berry, et al., were washed twice with D-MEM (pH 7.4) (each 2 ml) containing D-PBS, 0.1% BSA and 20 mM Hepes, added said D-MEM medium (1 ml), and preincubated at 37°C for 60 minutes. The cooled D-PBS (pH 5.0) containing 10 mM EDTA was added to the cells, allowed to stand under ice-cooling for 4 minutes, and washed twice with cooled D-PBS (2 ml). […] The cells were washed, on the ice bath, 4 times with cooled D-PBS (1 ml), allowed to leave at -80°C for more than 30 minutes, added 0.1 N aqueous sodium hydroxide (0.5 ml), incubated at 37°C for more than 1 hour, and measured the cell lytic solution by using γ-counter to calculate amount of bound ^125I-ASOR on the surface of cells. […]

[4] = target: T2, asialoglycoprotein receptor (ASGP-R) (Mus musculus, UniProt P24721+P34927); assay: Binding inhibition experiment of 125I-ASOR to mouse liver cells (Example 8, method of Biessen et al.); settings: for Ki: 4°C
T2 construct: The liver parenchymal cells (in 4 ml Falcon tube, 0.6 - 1.0 × 10^6/0.5 ml in ice bath); endogenous in cells; host or cells: freshly isolated mouse liver parenchymal cells (C57BL/6) in suspension
T2 sequence (P34927 1-284): T1 sequence (P34927 1-284)
T2 sequence (P24721 1-301): T1 sequence (P24721 1-301)
Description: Among these ligands, we have first examined two types of ligands for asialoglycoprotein receptor on hepatocytes, i.e. the three-branched galactose ligand [(Gal)3] of the following formula: [drawing 5] and the three-branched N-acetylgalactosamine ligand [(GalNAc)3] of the following formula: [drawing 6] and their binding forms to IL-2. At first, the Kd value, which is an index of the binding affinity to ASGP-R, was calculated. Table 1,
Binding inhibition experiments of ASOR to mouse liver cells using each ligand were performed according to a method of Biessen, et al. [Biessen, E.A.L. et al., J. Biol. Chem., 271(45): 28024-28030 (1996)].
The liver parenchymal cells (in 4 ml Falcon tube, 0.6 - 1.0 × 10^6/0.5 ml in ice bath) was added to D-PBS containing 2% BSA. Inhibitor 0.25 ml prepared for various concentration with D-PBS containing 2% BSA was added thereto. ^125I-ASOR 0.25 ml (22 nM) in D-PBS containing 2% BSA was added therein and stirred gently at 4°C for 2 hours.
The mixture was centrifuged at 50G for 1 minute, discarded the supernatant solution, added D-PBS containing 2% BSA and stirred, then again centrifuged at 50G for 1 minute, and discarded the supernatant medium. This procedure was repeated again and the medium was measured by γ-counter.
Thereafter, 0.1 N NaOH containing 10% SDS 1 ml was added thereto, and the protein concentration was measured by Lowry method using the protein assay kit (Biorad Inc.).
As a result, depending on the increase in the added concentration of (GalNAc)3 and (Gal)3, […] was dissociated with almost monophasic manner. Data of dissociation obtained by three repeated experiments were analyzed using non-linear single site model to calculate the binding inhibition constant (Ki).
Large differences were observed between two types of the ligand.

Molecule NCCCCCC(=O)N[C@@H](CCC(=O)NCCOCCOCCO[C@@H]1O[C@H](CO)[C@H](O)[C@H](O)[C@H]1O)C(=O)NCCOCCOCCO[C@@H]1O[C@H](CO)[C@H](O)[C@H](O)[C@H]1O (atropisomer, axis not shown) [(Gal)2(9)] has a koff ([1]; unlabeled ligand, 4°C, 125I-ASOR binding rate for 15 minutes, read-out: koff (converted)) of 0.000395 s⁻¹, a kint ([1]; unlabeled ligand) of 0.0605 min⁻¹ and a Bound [2] of 1670 cpm.

Work on NCCCCCC(=O)NC(CCC(=O)NCCOCCO[C@@H]1O[C@H](CO)[C@H](O)[C@H](O)[C@H]1O)C(=O)NC(CCC(=O)NCCOCCO[C@@H]1O[C@H](CO)[C@H](O)[C@H](O)[C@H]1O)C(=O)NCCOCCO[C@@H]1O[C@H](CO)[C@H](O)[C@H](O)[C@H]1O (stereo partly drawn) [(Gal)3(6)] yielded a koff [1] of 0.00113 s⁻¹, a kint ([1]; unlabeled ligand) of 0.0417 min⁻¹ and a Ki [3] of 0.369 µM. It also gave a Bound [2] of 2015 cpm.

NCCCCCC(=O)NC(CCC(=O)NCCOCCOCCO[C@@H]1O[C@H](CO)[C@H](O)[C@H](O)[C@H]1O)C(=O)NC(CCC(=O)NCCOCCOCCO[C@@H]1O[C@H](CO)[C@H](O)[C@H](O)[C@H]1O)C(=O)NCCOCCOCCO[C@@H]1O[C@H](CO)[C@H](O)[C@H](O)[C@H]1O (stereo partly drawn) [(Gal)3, three-branched galactose ligand] was tested, and the koff [1] was 0.000943 s⁻¹, the kint ([1]; unlabeled ligand) was 0.054 min⁻¹ and the “affinity relative to (GalNAc)3” value ([4]; ratio of affinities from Kd values) was “approximately 1/200”. The Ki ([4]; read-out: Binding inhibitory constant (Ki) Ave., average of three repeated experiments, 125I-ASOR 22 nM) was 350 µM and 354 µM, the Ki ([4]; read-out: Binding inhibitory constant (Ki), individual experiments 1-3, binding of 125I-ASOR (22 nM) to mouse hepatocytes) was 681 µM and 351 µM and 292 µM and the Kd ([4]; read-out: Kd value, calculated from the Ki of Table 1) was 354 µM. The Ki [3] was 0.157 µM and the Bound [2] was 1784 cpm.

From patent publication EP1207391A1, “METHOD FOR SCREENING TARGETING DDS PREPARATION” (Ajinomoto Co., Inc., priority 1999, dated 2001)
